This is an account of results in patent US9174977B2, “2-azabicyclo[4.1.0]heptane derivatives as orexin receptor antagonists for the treatment of certain disorders” (Rottapharm Biotech S.r.l., priority 2012, dated 2015).

In one experiment the target is T1, human OX1 receptors (Homo sapiens, UniProt O43613).
T1 construct: expressed in transfected cells; host or cells: CHO cells
T1 sequence (O43613 1-425): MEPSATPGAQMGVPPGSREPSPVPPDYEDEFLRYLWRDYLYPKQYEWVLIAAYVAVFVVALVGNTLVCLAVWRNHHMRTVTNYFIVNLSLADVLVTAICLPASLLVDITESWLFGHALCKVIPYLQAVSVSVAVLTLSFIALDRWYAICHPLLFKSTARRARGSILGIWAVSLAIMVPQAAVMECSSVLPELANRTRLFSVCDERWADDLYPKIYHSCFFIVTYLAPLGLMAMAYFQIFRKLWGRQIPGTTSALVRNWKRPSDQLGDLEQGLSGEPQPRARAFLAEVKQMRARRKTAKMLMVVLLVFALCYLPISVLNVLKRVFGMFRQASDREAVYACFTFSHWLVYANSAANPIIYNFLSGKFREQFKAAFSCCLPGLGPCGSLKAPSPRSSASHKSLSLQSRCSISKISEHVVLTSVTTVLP
Description: antagonistic activity against human OX1 receptor, calcium fluorimetry (Fluo-4NW) in transfected CHO cells. It counts as cell-based. The settings on record: CHO cells transfected with human recombinant OX1, activated with orexin-A 3 nM; pKb = co-logarithm of apparent dissociation constant (modified Cheng Prusoff). How it is done: (§1) In a typical experiment, the antagonistic activity against human OX1 and OX2 receptors is determined by using CHO e HEK-293 cells transfected with human recombinant OX1 and OX2 receptors respectively, seeded at density of 2 and 3×10^4 cells/well respectively in a 96 fluorimetry well plate. Thus the plate was loaded with the calcium dye (Fluo-4NW/probenecid in HBSS, Hepes 20 mM, pH 7,4; Invitrogen) at 37° C. for 60 min. Afterward the temperature was equilibrated at 22° C. for 15 min and the [Ca2+]i measured directly on the plate by using a fluorescent plate reader (CellLux Perkin Elmer).
(§2) Invention compounds were dissolved in DMSO, diluted in HBSS (DMSO, 0.3% final) and added to the wells. After 5 min CHO cells were activated with orexin-A, 3 nM while HEK-293 cells were activated with orexin-B, 10 nM.
(§3) The compounds, dissolved in DMSO and diluted in the medium (DMSO, 0.3% final), have been analysed in the 1 nM-1 μM concentration range (every concentration in duplicate). The antagonistic activity has been expressed as pKb (co-logarithm of the apparent dissociation constant calculated by using the modified Cheng Prusoff equation).
(§4) The results are expressed as percent of control specific […] response ((measured specific response/control specific agonist response)×100) obtained in the presence of the test compounds.
(§5) The IC50 values (concentration causing a half-maximal inhibition of the control specific agonist response) were determinated by non-linear regression analysis of the concentration curves generated with mean replicate values using hill equation curve fitting. The IC50 values are obtained by the arithmetical mean of at least two experiments.

The target in another experiment is T2, human OX2 receptors (Homo sapiens, UniProt O43614).
T2 construct: expressed in transfected cells; host or cells: HEK-293 cells
T2 sequence (O43614 1-444): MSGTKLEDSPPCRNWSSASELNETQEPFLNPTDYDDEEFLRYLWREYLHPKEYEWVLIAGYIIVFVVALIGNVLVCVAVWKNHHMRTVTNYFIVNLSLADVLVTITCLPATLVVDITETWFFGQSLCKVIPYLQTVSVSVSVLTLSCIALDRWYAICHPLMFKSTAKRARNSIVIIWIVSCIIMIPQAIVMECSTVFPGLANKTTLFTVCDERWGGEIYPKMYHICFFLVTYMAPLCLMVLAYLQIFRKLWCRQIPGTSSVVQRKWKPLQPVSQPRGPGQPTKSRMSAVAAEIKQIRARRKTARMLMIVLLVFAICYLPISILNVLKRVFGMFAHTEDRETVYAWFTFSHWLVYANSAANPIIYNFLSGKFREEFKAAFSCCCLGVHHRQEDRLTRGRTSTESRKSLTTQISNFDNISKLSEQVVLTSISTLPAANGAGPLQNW
The experiment in a line: antagonistic activity against human OX2 receptor, calcium fluorimetry (Fluo-4NW) in transfected HEK-293 cells. It counts as cell-based. The following applies: HEK-293 cells transfected with human recombinant OX2, activated with orexin-B 10 nM; pKb = co-logarithm of apparent dissociation constant (modified Cheng Prusoff). How it is done:
as §1, §2, §3, §4, §5

Turning to `N#Cc1ccc(-c2ncccn2)c(C(=O)N2[C@H](COc3ccc(Cl)cn3)CC[C@H]3C[C@H]32)c1` [Compound 3a, 3-((1R,3S,6S)-3-(((5-chloropyridin-2-yl)oxy)methyl)-2-azabicyclo[4.1.0]heptane-2-carbonyl)-4-(pyrimidin-2-yl)benzonitrile], the Kb (commonly the equilibrium dissociation constant of an antagonist, usually derived from a functional assay) at human OX1 receptors is 0.00126 µM; on human OX2 receptors, 0.0631 µM.
Taken in the same sequence, the figures for `O=C(c1cc(Cl)ccc1-c1ncccn1)N1[C@H](COc2ccc(F)cn2)CC[C@H]2C[C@H]21` [Compound 3c, (5-chloro-2-(pyrimidin-2-yl)phenyl)((1R,3S,6S)-3-(((5-fluoropyridin-2-yl)oxy)methyl)-2-azabicyclo[4.1.0]heptan-2-yl)methanone] were 0.0126 µM and 0.0631 µM.
As for `O=C(c1cc(Cl)ccc1-c1ncccn1)N1[C@H](COc2ccc(C(F)(F)F)cn2)CC[C@H]2C[C@H]21` [Compound 3d, (5-chloro-2-(pyrimidin-2-yl)phenyl)((1R,3S,6S)-3-(((5-(trifluoromethyl)pyridin-2-yl)oxy)methyl)-2-azabicyclo[4.1.0]heptan-2-yl)methanone], the Kb at human OX1 receptors is 0.00126 µM; on human OX2 receptors, 0.02 µM.
On the same counts, the results for `O=C(c1cc(Cl)ccc1-c1ncccn1)N1[C@H](COc2ccc(Cl)cn2)CC[C@H]2C[C@H]21` [Compound 3e, (5-chloro-2-(pyrimidin-2-yl)phenyl)((1R,3S,6S)-3-(((5-chloropyridin-2-yl)oxy)methyl)-2-azabicyclo[4.1.0]heptan-2-yl)methanone] are 0.001 µM and 0.0158 µM.
On the same counts, the results for `Cc1ccc(-c2ncccn2)c(C(=O)N2[C@H](COc3ccc(Cl)cn3)CC[C@H]3C[C@H]32)c1` [Compound 3f, ((1R,3S,6S)-3-(((5-chloropyridin-2-yl)oxy)methyl)-2-azabicyclo[4.1.0]heptan-2-yl)(5-methyl-2-(pyrimidin-2-yl)phenyl)methanone] are 0.001 µM and 0.0501 µM.
Taken in the same sequence, the figures for `Cc1ccc(-c2ncccn2)c(C(=O)N2[C@H](COc3ccc(C(F)(F)F)cn3)CC[C@H]3C[C@H]32)c1` [Compound 3g, (5-methyl-2-(pyrimidin-2-yl)phenyl)((1R,3S,6S)-3-(((5-(trifluoromethyl)pyridin-2-yl)oxy)methyl)-2-azabicyclo[4.1.0]heptan-2-yl)methanone] were 0.00158 µM and 0.0126 µM.
For the molecule `Cc1ccc(-c2ncccn2)c(C(=O)N2[C@H](CNc3ccc(C(F)(F)F)cn3)CC[C@@H]3C[C@@H]32)c1` [Compound 4a, (5-methyl-2-(pyrimidin-2-yl)phenyl)((1S,3S,6R)-3-(((5-(trifluoromethyl)pyridin-2-yl)amino)methyl)-2-azabicyclo[4.1.0]heptan-2-yl)methanone], the Kb at human OX1 receptors was 0.00251 µM; on human OX2 receptors, 0.0398 µM.
On the same counts, the results for `O=C(c1cc(Cl)ccc1-c1ncccn1)N1[C@H](CNc2ccc(C(F)(F)F)cn2)CC[C@@H]2C[C@@H]21` [Compound 4b, (5-chloro-2-(pyrimidin-2-yl)phenyl)((1S,3S,6R)-3-(((5-(trifluoromethyl)pyridin-2-yl)amino)methyl)-2-azabicyclo[4.1.0]heptan-2-yl)methanone] are 0.00501 µM and 0.2 µM.
In the case of `N#Cc1ccc(-c2ncccn2)c(C(=O)N2[C@H](CNc3ccc(C(F)(F)F)cn3)CC[C@@H]3C[C@@H]32)c1` [Compound 4c, 4-(pyrimidin-2-yl)-3-((1S,3S,6R)-3-(((5-(trifluoromethyl)pyridin-2-yl)amino)methyl)-2-azabicyclo[4.1.0]heptane-2-carbonyl)benzonitrile], the Kb is 0.00631 µM at human OX1 receptors and 0.0794 µM at human OX2 receptors.
On the same counts, the results for `O=C(c1cc(Cl)ccc1-c1ncccn1)N1[C@H](CNc2cc(C(F)(F)F)ccn2)CC[C@@H]2C[C@@H]21` [Compound 4d, (5-chloro-2-(pyrimidin-2-yl)phenyl)((1S,3S,6R)-3-(((4-(trifluoromethyl)pyridin-2-yl)amino)methyl)-2-azabicyclo[4.1.0]heptan-2-yl)methanone] are 0.00794 µM and 0.0501 µM.
On the same counts, the results for `Cc1ccc(-c2ncccn2)c(C(=O)N2[C@H](CNc3cc(C(F)(F)F)ccn3)CC[C@@H]3C[C@@H]32)c1` [Compound 4f, (5-methyl-2-(pyrimidin-2-yl)phenyl)((1S,3S,6R)-3-(((4-(trifluoromethyl)pyridin-2-yl)amino)methyl)-2-azabicyclo[4.1.0]heptan-2-yl)methanone] are 0.00631 µM and 0.0398 µM.
On the same counts, the results for `Cc1nc(C(=O)N2[C@H](CNc3ccc(C(F)(F)F)cn3)CC[C@@H]3C[C@@H]32)c(-c2ccccc2)s1` [Compound 5a, (2-methyl-5-phenylthiazol-4-yl)((1S,3S,6R)-3-(((5-(trifluoromethyl)pyridin-2-yl)amino)methyl)-2-azabicyclo[4.1.0]heptan-2-yl)methanone] are 0.00251 µM and 0.0501 µM.
